The source made the active and inactive calls. The calls are words filed in the database; no cut-off is given here.

This note sets out measurements from ChEMBL document CHEMBL1765018, “Inhibition of amyloid-β aggregation by coumarin analogs can be manipulated by functionalization of the aromatic center” (Bioorg Med Chem, 2011).

Assay [1] is described as follows: Inhibition of amyloid beta (1 to 40) monomer aggregation assessed as lag time extension by thioflavin T based fluorometric assay relative to control.
Assay [2] in a line: Inhibition of amyloid beta (1 to 40) monomer aggregation assessed as reduction in plateau fluorescence by thioflavin T based fluorometric assay. On the set-up: concentration or dose not given beside the values.
A short description of assay [3]: Inhibition of amyloid beta (1 to 40) monomer aggregation assessed as doubling in lag time by thioflavin T based fluorometric assay.
The nature of assay [4]: Inhibition of amyloid beta (1 to 40) monomer aggregation at 100 uM by thioflavin T based fluorometric assay.

In general, inhibition refers to the relative decrease from the control value, in per cent. Turning to `O=c1cc(-n2cc(-c3ccccc3)nn2)c2ccccc2o1`, the fold change (FC) in assay [1] came to 1.4. Also, the inhibition in assay [2] (concentration not given here) was 73%.

Take `CCN(CC)c1ccc2cc([N+](=O)[O-])c(=O)oc2c1`: the fold change (FC) in assay [1] worked out at 1.7.

`O=c1oc2ccccc2cc1-n1cc(-c2cccc3ccccc23)nn1`: the outcome in assay [3] was Active. Also, the fold change (FC) in assay [1] turned out to be 2. In addition, the inhibition in assay [2] (concentration not given here) was 61%.

As for `O=c1oc2ccccc2cc1-c1nn[nH]n1`, the fold change (FC) in assay [1] amounted to 1. Moreover, in assay [2] (concentration not given here), the inhibition worked out at 87%.

As for `O=c1cc(Cl)c2ccccc2o1`, the result in assay [4] and in assay [1] was inactive. Further, the inhibition result in assay [2] is “inactive”.

Consider `N#Cc1cc2ccccc2oc1=O`, for which, in assay [1], the fold change (FC) worked out at 1. Further, the inhibition in assay [2] (concentration not given here) was found to be 22%.

As to `CCN(CC)c1ccc2c(C#N)c(C(C)=O)c(=O)oc2c1`, in assay [1], the fold change (FC) is 1.8.

On to `CCN(CC)c1ccc2c(C#N)c(-c3nc4ccccc4s3)c(=O)oc2c1`, for which the fold change (FC) in assay [1] came out at 1.1. Besides, in assay [2] (concentration not given here), the inhibition came out at 38%.

In the case of `O=C(O)CCCC(=O)NCc1cn(-c2cc3ccccc3oc2=O)nn1`, in assay [1], the result was inactive. Further, in assay [2], the inhibition result was “inactive”.

Turning to `CCN(CC)c1ccc2c(C#N)c(N)c(=O)oc2c1`, in assay [1], the fold change (FC) was 2.1.

With `CCN(CC)c1ccc2cc(-c3nc4ccccc4s3)c(=O)oc2c1`, the fold change (FC) in assay [1] was 1.3. The inhibition in assay [2] (concentration not given here) was found to be 64%.

As for `CCN(CC)c1ccc2c(-c3nnn[nH]3)c(-c3nc4ccccc4s3)c(=O)oc2c1`, the fold change (FC) in assay [1] stood at 1. The inhibition in assay [2] (concentration not given here) stood at 96%.

As for `O=c1oc2ccccc2cc1-n1cc(-c2ccccc2)nn1`, the fold change (FC) in assay [1] worked out at 2.2. For the same molecule, in assay [2] (concentration not given here), the inhibition is 88%.
